Measurements: paper PMC8708875 (Pharmaceutics, 2021)
Read-outs that look alike come from different tables or passages of the source.

Columns and labels:
Glut4 = assay: GLUT4 translocation assay (subcellular fractions, Western blot); assay type: cell-based, mouse
Procedure: C2C12 differentiated myotubes were starved with free-FBS low glucose DMEM for 3 h, and then treated with saline or 5 µM of BMS-536924 insulin receptor inhibitor (Sigma-Aldrich, Sao Paulo, Brazil) for 30 min. Next, C2C12 were incubated in the presence of either vehicle, insulin (100 nM) or Ric4 (100 µM) for 30 min. As described by Tortorella and Pilch, 2002, cells were washed three times with PBS, and homogenized with 40 strokes of a glass tissue grinder in buffer containing sucrose 255 mM, disodium 4 mM, EDTA 20 mM, 4-(2-hydroxyethyl)-1-piperazineethanesulfonic acid (HEPES) 10 mM, pH 7.4, leupeptin 10 µM, pepstatin 1µM, aprotinin 1 µM, phenylmethylsulfonyl fluoride (PMSF) 1 mM, and benzamidine 5 mM (HES buffer). The homogenate was centrifuged at 19,000× g for 20 min. The pellet was saved (P1). The supernatant was recovered and centrifuged at 40,000× g for 20 min. The pellet (MF1) was resuspended in HES buffer. The supernatant was further centrifuged at 180,000× g for 1.5 h and the pellet (MF2) was resuspended in HES buffer. Both pellets MF1 and MF2, referred to as microsomal fraction (MF) correspond to high- and low-density microsomes. The pellet from the first centrifugation (P1) was resuspended in HES buffer, layered onto a 1.12 M sucrose cushion in 20 mM HEPES and 1 mM disodium EDTA, and centrifuged at 100,000× g for 1 h. The pellet (nuclear/endoplasmic reticulum fraction -N/ER) was resuspended in a buffer containing 20 mM Tris (pH 7.4), 50 mM NaCl, 2% Nonidet P-40, 0.5% deoxycholate, 0.2% SDS, and the protease inhibitor cocktail (#P8340; Sigma Aldrich, SP, Brazil). The interphase of the sucrose cushion was collected and pelleted at 40,000× g for 20 min. This PM-containing pellet (PM) was resuspended in PBS plus protease inhibitors. All centrifugations were performed at 4 °C with a Beckman Coulter Ultracentrifuge. Total protein of all samples was determined using Pierce™ BCA Protein Assay Kit (ThermoFisher, Sao Paulo, Brazil). Proteins were submitted to Western blot analysis as described above, using as primary antibody anti-Glut4 (1:1000, Cell Signaling, Boston, MA, USA).
Figure 4 Glucose uptake and GLUT4 translocation induced by Ric4 in C2C12 cells. C2C12 cells were previously incubated in serum-free and glucose-free DMEM medium, then incubated with HEPES buffer for 30 min and then incubated for a further 30 min in glucose-uptake buffer containing vehicle, Ric4 (100 µM), or insulin (100 nM) in the presence of ^3H-glucose (1 µCi/mL) or 2-NBDG (80 µM). After incubations cells were lysed with 50 μL of 0.1 N NaOH and fluorescence or radiation of aliquots from the lysate were measured (A). Epididymal adipose tissue explants (20–25 mg) were incubated in Krebs–Ringer bicarbonate buffer containing glucose 5.5 mM and 1 μCi/mL of ^3H-deoxyglucose supplemented with 2% fatty acid-free for 30 min at 37 °C in the presence or absence of insulin (100 nM) or Ric4 (100 µM). The explants were processed to evaluate the uptake of ^3H-deoxyglucose (B). Myotubes were previously incubated in serum-free and glucose-free DMEM medium and then treated with control vehicle PBS or Ric4 (100 µM) for 30 min. Proteins from subcellular fractions: N/ER (C), microsomal (D), plasma membrane (E), were isolated and the expression Glut4 was analyzed by Western blot. Images were quantified using ImageJ 1.49 software. The statistical comparisons were performed using analysis of variance (ANOVA), followed by ad-hoc Tukey’s test using GraphPad Prism software * p < 0.05; # p < 0.05; **** p < 0.0001.

[1] = test system: epididymal adipose tissue and tibial skeletal muscle of WT mice; assay: mRNA expression of energy metabolism genes in tissues after ip administration (qPCR); assay type: in vivo, mouse; details: 600 µg/kg ip
Procedure: Real-time PCR (qPCR) experiments were performed to evaluate the mRNA expression levels, at basal and under stimulus, for peroxisome proliferator activator receptor gamma (PPARγ), peroxisome proliferator activator receptor alpha (PPARa), cAMP responsive element binding protein 1 (Creb1), aldolase A, fructose-bisphosphate (ALDOA), cytochrome c oxidase subunit IV isoform 1 (Cox4i1), phosphoglycerate mutase 2 (PGAM2), troponin I, skeletal, fast 2 (TNNI2), […] (TNNT3), small muscle protein X-linked (SMPX), myosin, […] (MYH1), insulin-growth factor 1 (IGF1), Glucose transporter 4 (GLUT4), and lipoprotein lipase (LPL). Primers sequences are described in Supplementary Materials (Table S1). […] Quantitative PCRs were performed using the Prism 7900 sequence detection system (Applied Biosystems, Foster City, CA, USA) with 100 nM primer and 20 ng cDNA. The expression of mRNA targets was normalized by expression of gene glyceraldehyde 3-phosphate dehydrogenase (GAPDH) or hipoxantina-guanina fosforibosiltransferase (HPRT) and expressed as relative values using the 2 DDCt method. […]
Figure 6 Ric4 stimulated mRNA expression levels of genes related to energy metabolism. WT mice were treated with vehicle (Control) or Ric4 (600 ug/kg, ip) and gene expression was evaluated by qPCR. […]

[2] = C2C12 myotubes, Ric4 100 µM, insulin 100 nM, 30 min, Western blot

| Substance | Glut4 presence in microsomal membranes (Glut4; [2]) | translocation of Glut4 to plasma membrane (Glut4; [2]) | translocation of Glut4 to rough endoplasmic reticulum (RER) membranes (N/ER fraction) (Glut4; [2]) | Glut4 presence in microsomal membranes (Glut4) | GLUT4 mRNA levels in epididymal adipose tissue [1] | expression levels of genes related to energy metabolism in epididymal adipose tissue (LPL, PPARγ, PPARa, GLUT4, IGF1) [1] |
| --- | --- | --- | --- | --- | --- | --- |
| Insulin | not observed | induced translocation of Glut4 to plasma membrane | not observed |  |  |  |
| LASVSTVLTSKYR [Ric4, intracellular peptide derived from hemoglobin alpha subunit, last 13 C-terminal amino acids] |  | induced translocation of Glut4 to plasma membrane | increased | decreasing | increased | stimulated the expression levels |
